Measurements from US20200316087A1, “NOVEL COMBINATION THERAPY FOR ANXIETY DISORDERS, EPILEPSY, AND PAIN” (priority 2017, published 2020).

Assays:
[1] = test system: PTZ-induced clonus; assay: Pentylenetetrazole (PTZ, 35 mg/kg s.c.)-induced clonic convulsions; format: in vivo; details: for PTZ Clonus to Criteria 1: MED producing maximal protection (0% seizures); for PTZ Clonus Potency (MED): lowest dose with statistically significant protection; for PTZ Clonus Potency (MED) / protection against PTZ-induced clonus: PTZ 35 mg/kg s.c.
Procedure: After the inverted screen test, the rats were dosed with pentylenetetrazole (PTZ)(35 mg/kg, s.c.) in a volume of 1 ml/kg and placed in an observation cage (40.6×20.3×15.2 cm) with a floor containing […] of wood chip bedding material. PTZ dose was determined to be ˜EC97 for producing clonic convulsions.

[2] = test system: motor performance on an inverted screen; assay: Rat inverted screen test (motor impairment); details: up to 30 mg/kg, rats, inverted screen
Text: The motor effects of Diazepam and KRM-II-81 were studied on the inverted screen. The inverted screen test is used to measure whether or not a test compound induces muscle relaxation. When a test subject is placed on a wire screen which is then inverted, the reaction is to climb to the opposite side so they are no longer hanging upside down.
Male, Sprague Dawley rats (Harlan Sprague Dawley, Indianapolis, Ind.) were used and weighed 90-110 g when evaluated in experiments. […] Rats were placed onto the top of a wire screen, which was then inverted so that the rats were hanging upside down.
Male Sprague-Dawley rats (n=5) were dosed i.p. (vehicle=1% carboxymethyl cellulose) with diazepam (3, 10, or 30 mg/kg), KRM-II-81 (10, 30, or 60 mg/kg) or HZ-166 (30 mg/kg) 30 minutes prior to testing. Rats were placed onto the top of a wire screen, which was then inverted so that the rats were hanging upside down. […] Results were analyzed using ANOVA (Dunnett's test: *P<0.05).
(§1) For the in vivo assays, minimal effective doses (MED) were calculated in mg/kg. MED was defined as the lowest dose administered that produced statistically significant protection compared to vehicle control in the anticonvulsant assays. The MED, or minimal toxic dose (MTD) for motor impairment, was the minimal dose required to produce statistically-significant impairment in motor performance. Doses tested are shown in the figures and tables and are generally dosed in ½ log increments. The protective index (PT) was calculated at the MTD/MED.

[3] = test system: immobility in forced-swim test; assay: Forced-swim assay; format: in vivo, mice
Procedure: Male NIH Swiss mice (Envigo, Indianapolis, Ind.) were studied. Mice were placed in clear plastic cylinders (diameter: 10 cm; height: 25 cm) filled with 6 cm of water (22-25° C.) for six min. […] The duration of immobility during the last four min of the six min test period was scored. A mouse was recorded as immobile when floating motionless or making only those movements necessary to keep its head above water.

[4] = test system: electroshock-induced seizures; assay: Mouse electroshock-induced seizure model; format: in vivo; details: mice
Procedure: This assay detects effects of compounds that produce generalized seizures and those that dampen seizure spread. Male, CD1 mice (Taconic Farms) were studied at weights of 21-32 g. Mice=10/dose) were used with Wahlquist Model H stimulator with 0.2 sec stimulation with corneal electrodes. […] Mice were euthanized immediately following the test. Tonic extension was used as the primary endpoint.
as §1

[5] = test system: human (α2), or rat (α1, α3, α5, γ2L, β3) GABAA receptor subunits; assay: Whole-cell patch-clamp GABA current responses in transfected HEK-293T cells; format: cell-based; details: GABA EC3-5, drug concentration 100 nM
Procedure: Human […] (HEK-293T) were transiently transfected with full-length cDNAs encoding human (α2), or rat (α1, α3, α5, γ2L, β3) GABAA receptor subunits using calcium phosphate precipitation. Positively transfected cells were isolated by utilizing co-transfection of a plasmid encoding a surface antibody (pHook™-1, Invitrogen). 20-52 hours following transfection, cells were mixed with magnetic beads coated with antigen specific for the pHook antibody, isolated with a magnetic stand, and then plated onto coverslips and used for patch-clamp recordings 18-28 hours later.
Current responses to GABA were recorded in the whole-cell configuration, with cells voltage-clamped at −50 mV. The bath solution contained (in mM): 142 NaCl, 8.1 KCl, 6 MgCl2, 1 CaCl2), and 10 HEPES (4-(2-hydroxyethyl)-1-piperazineethanesulfonic acid) with pH=7.4 and osmolarity adjusted to 295-305 mOsm. The electrode (internal) solution consisted of (in mM); 153 KCl, 1 MgCl2, 5 K-EGTA (ethylene glycol-bis (β-aminoethyl ether N,N,N′N′-tetraacetate)), and 10 HEPES with pH=7.4 and osmolarity adjusted to 295-305 mOsm. […] Currents were recorded with an Axon 200B (Foster City, Calif.) patch clamp amplifier. […] Data were analyzed by two-way ANOVA followed by post-hoc Tukey's multiple comparison test. […]

[6] = test system: seizures in amygdala kindled rats; assay: Basolateral amygdala kindling; format: in vivo
Procedure: Seizure kindling models evaluate effects of drugs on the sensitization of the nervous system to seizure induction. In this test, drugs were evaluated for their ability to impact seizure parameters in rats that were fully kindled by daily electrical stimulation of their amygdala. Valproic acid was used as a positive control. Experiments were conducted using the general procedures of Zwart et al. (J. Pharmacol. Exp. Ther., 2014, 351:124-133). A bipolar electrode for electrical stimulation and EEG recording was stereotaxically implanted into one hemisphere of the basolateral amygdala (AP −2.2, ML −4.8, DV −8.5 mm, relative to bregma) of male Wistar rats. After post-operative recovery, electrical kindling begins, where a subthreshold constant current (400 μA, 1 ms, monophasic square-wave pulses, 60 Hz for 1 sec) is given once a day Monday-Friday for about 4-6 weeks until a rat is fully kindled. A fully kindled rat has experienced 10 consecutive stage 5 seizures or 10 of its last 12 were stage 5 according to the Racine Scale.
Twelve fully kindled rats were assigned to this study, and eight rats were selected and randomized to initial compound treatment groups from baseline after discharge threshold (ADT), seizure severity score, and after discharge duration (ADD). […] On test day, rats were dosed 30 min prior to beginning stimulation. After the pre-treatment, rats were stimulated using an ascending staircase sequence beginning at 10 μA and increasing in log unit steps of 10, 16, 25, 40, 65, 100, 160, 250, and 400 μA. Animals were stimulated until they were assigned a Seizure Severity Score for a visually observably seizure or they reached the 400 μA threshold limit. ADD was determined following testing. ADT was the current that induced a seizure; measurements were scale-adjusted to capture the stimulation scale change required to observe a seizure from the previous baseline to the ADT scored on test day. […] The average scale adjusted ADT was approximately 0.63 μA in vehicle treated rats.
Racine score of behavioral response to stimulation: 0=no behavioral response; 1=immobility, staring and/or facial clonus; 2=head nodding, jaw clonus, and/or tongue protrusion; 3=unilateral forelimb clonus; 4=bilateral forelimb clonus and/or rearing; 5=bilateral forelimb clonus with rearing and loss of balance.
After-Discharge Duration (ADD) is the duration of the first after-discharge.
ADT, ADD, and severity scores were analyzed by ANOVA. Seizure severity data was also analyzed by the nonparametric Skillings-Mack test, a generalization of the Friedman test for one-way repeated measures designs. Posthoc tests when reported were either by Dunnett's method (seizure severity) or using Wilcoxon sign rank tests (ADT and ADD). Valproic acid, used as a positive control was not used in ANOVA calculations.

[7] = test system: PTZ seizure threshold; assay: Pentylenetetrazole (PTZ, i.v.)-induced seizure threshold; format: in vivo, rats
Procedure: Male […] Sprague-Dawley rats (Indianapolis, Ind.) were randomly assigned to treatment groups and dosed with vehicle (vehicle=1% carboxymethyl cellulose) with diazepam (0.1, 0.3, or 1 mg/kg) or test compound (3, 10, 30, or 60 mg/kg) 30 minutes prior to testing. Rats were placed in a restrainer and a winged infusion needle was inserted into the lateral tail vein. Intravenous infusion with 10 mg/ml PTZ at a rate of 0.5 ml/min was initiated until a clonic convulsion occurred, and the time to clonic convulsion was recorded in sec or a maximum of 4 min was recorded. Following infusion, rats are euthanized. The dose of PTZ required to elicit a clonic convulsion was calculated using the infusion rate, concentration of PTZ, time to clonic convulsion, and animal weight.

[8] = test system: motor performance on inverted screen
Procedure: Without prior pretraining, mice were placed on an 11 cm×14 cm square of round hole, perforated stainless steel mesh (18 holes/square inch, 3/16 inch diameter, ¼ inch staggered centers, 50% open area) mounted on a metal rod, 35 cm above the table top. The screen was slowly inverted such that the mouse was on the underside of the screen. Mice were then scored for 60 sec as follows: 0=climbed to top of screen, 1=hung onto bottom of screen, 2=fell off. Data were analyzed by ANOVA followed by post-hoc Dunnett's test.
The test compounds were suspended in 1% hydroxyethylcellulose/0.05% Tween 80/0.05% Dow antifoam. […] Compounds were administered in a volume of 10 ml/kg and were given 30 min prior to testing via the i.p. route of administration; diazepam was dosed orally, 30 min prior to testing.

C#Cc1ccc2c(c1)C(c1ccccn1)=NCc1c(-c3nc(CC)no3)ncn1-2 [MP-III-080, 3-ethyl-5-(8-ethynyl-6-(pyridin-2-yl)-4H-benzo[f]imidazo[1,5-a][1,4]diazepin-3-yl)-1,2,4-oxadiazole]
PTZ Clonus to Criteria 1 ([1]; rats): 10 mg/kg | PTZ Clonus Potency (MED) ([1]; rats): 10 mg/kg | protection against PTZ-induced clonus ([1]; rats): dose-dependently suppressed | effect on motor performance [2]: without significant effect on motor performance | immobility in forced-swim assay ([3]; male NIH Swiss mice, i.p., 30 min prior): significantly decreased immobility time | Electroshock to Criteria ([4]; MED producing maximal protection (0% seizures)): 5.6 mg/kg | selectivity for α2 and α3 over α1 [5]: selective for α2 and α 3 over α1

CN1C(=O)CN=C(c2ccccc2)c2cc(Cl)ccc21 [Diazepam, diazepam, reference compound]
After-Discharge Duration to Criteria ([6]; MED for producing after-discharge duration ≤30 sec): >10 mg/kg | After-Discharge Threshold to Criteria ([6]; MED for producing after-discharge threshold ≥3): >10 mg/kg | Seizure Severity to Criteria ([6]; MED for producing seizure severity score ≤2): 10 mg/kg | After-Discharge Duration Potency (MED) ([6]; amygdala kindled rats): >10 mg/kg | After-Discharge Threshold Potency (MED) ([6]; amygdala kindled rats): 10 mg/kg | Seizure Severity Poteny (MED) ([6]; amygdala kindled rats): 10 mg/kg | effect on adjusted after-discharge threshold (ADT) ([6]; amygdala kindled rats): significantly increased | effect on after-discharge duration (ADD) ([6]; amygdala kindled rats): trend for a significant effect | effect on seizure severity score / kindling measures ([6]; amygdala kindled rats): decreased significantly | Seizure free scores (seizure severity=0) ([6]; amygdala kindled rats, groups of 8): 2/8 | PTZ Threshold to Criteria ([7]; MED for producing ≥2× PTZ seizure threshold at baseline): >1 mg/kg | potency relative to KRM-II-81 and KRM-II-82 ([7]; PTZ seizure threshold, rats): about 10 times | PTZ Threshold Poteny (MED) ([7]; lowest dose with statistically significant effect, rats, PTZ i.v.): 1 mg/kg | effect on dose of PTZ required to induce convulsions ([7]; rats, PTZ i.v. infusion, pretreatment 30 min): increased the dose of PTZ required to induce convulsions | PTZ Clonus to Criteria 1 ([1]; rats): 10 mg/kg | potency relative to KRM-II-81 to induce full seizure protection ([1]; PTZ-induced clonus, rats): 10 × | convulsions (rats convulsing/tested) after PTZ ([1]; diazepam 30 mg/kg p.o. + PTZ): 0/5 | PTZ Clonus Potency (MED) ([1]; rats): 10 mg/kg | protection against PTZ-induced clonus ([1]; rats): fully prevented | motor impairment on inverted screen ([8]; diazepam 22 mg/kg p.o., mice): still significant but not maximal | motor impairment score on inverted screen test ([8]; diazepam 30 mg/kg p.o., prior data, out of 2.0): 1.8 | antidepressant-like effect in forced-swim assay ([3]; diazepam 22 mg/kg p.o. alone, mice): did not produce an antidepressant-like effect | potency relative to KRM-II-81 to induce full seizure protection ([4]; electroshock): 5 × | Electroshock (minimal effective dose, MED) ([4]; lowest dose with statistically significant protection vs vehicle): 3 mg/kg | protection against electroshock-induced seizures [4]: fully prevented
